Source: US20190177774A1, “MOLECULAR REFERENCE CONTROLS” (STRECK, INC., priority 2016, published 2019)

Assays:
Assay in all cases: Time to stabilization (viability and sterility after addition of stabilizer)
E. coli = assay type: cell-based, Escherichia coli
Description: (§1) In one example, bacterial cells containing target gene sequences were stabilized with various cross-linkers and evaluated by microbiological methods. Viability and sterility were evaluated at various time points following addition of stabilizer. Time to stabilization was evaluated for particular bacteria/stabilizer combinations as shown below in Table 1.

C. psuedo = assay type: cell-based, Corynebacterium pseudodiphtheriticum
Description: as §1

N. sicca = assay type: cell-based, Neisseria sicca
Description: as §1

| Compound | Time to Stabilization (E. coli) | Time to Stabilization (C. psuedo) | Time to Stabilization (N. sicca) |
| --- | --- | --- | --- |
| o-Phthalaldehyde | 0.25 h | 24 h | 2 h |
| O=CCCCC=O [Glutaraldehyde] | 2 h | 24 h | 2 h |
| O=C(CCCCCCC(=O)ON1C(=O)CC(S(=O)(=O)O)C1=O)ON1C(=O)CC(S(=O)(=O)O)C1=O (centres unmarked) [Bis[sulfosuccinimidyl] Suberate] | >120 h | – | – |
| C=O [Formaldehyde] | 24 h | 24 h | 24 h |
| O=C(CCCCCCC(=O)ON1C(=O)CCC1=O)ON1C(=O)CCC1=O [Disuccinimidyl Suberate] | 120 h | – | – |
